# Patent publication US20230303564A1, “PYRIMIDINE RING COMPOUND” (MEDSHINE DISCOVERY INC., priority 2020, published 2023)
# Tests used:
# [1] = molecular target: CDK4/CyclinD1 (Homo sapiens (Human), UniProt P11802); test: CDK4/CyclinD1 enzyme activity test (LANCE Ultra TR-FRET); assay type: biochemical; details: 350 μM ATP, 25° C. 120 minutes, read-out: CDK4/Cyclin D1 IC50
# Experimental: CDK4/CyclinD1 Enzyme Reaction System
# (§1) Preparation of Kinase Buffer:
# (§2) The composition of the buffer: 50 mM of hydroxyethylpiperazine ethanesulfonic acid solution at pH 7.5, 1 mM of ethylenediaminetetraacetic acid, 10 mM of magnesium chloride, 0.01% Brij-35, and 2 mM of dithiothreitol.
# (§3) Enzymes, substrate LANCE Ultra ULight™-4E-BP-1(Thr37146) Peptide, ATP, and inhibitors were diluted by kinase buffer.
# (§4) The compounds to be tested were diluted 5-fold with a multi-channel pipette to the eighth concentration, that is, from 40 μM to 0.512 nM, the concentration of DMSO was 4%, and a double-hole experiment was set up. […] The reaction system was reacted at 25° C. for 120 minutes. After the reaction, 5 μL mixture of EDTA and 2× LANCE™ Detection Buffer (1:1) were added to each well, the reaction was carried out at 25° C. for 5 minutes, after the reaction was completed, 5 μL of LANCE Ultra Eu-anti-P-4E-BP1(Thr37MS) (4 nM) was added to each well, the reaction was carried out at 25° C. for 60 minutes, the reaction signal was detected by Nivo instrument according to the principle of time-resolved fluorescence resonance energy transfer.
# (§5) The equation (Sample−Min)/(Max−Min)*100% was used to convert the raw data into inhibition rate, and the value of IC50 can be obtained by curve fitting with four parameters (obtained by log (inhibitor) vs. response-Variable slope mode in GraphPad Prism). The enzymatic inhibitory activity of the compounds of the present disclosure on CDK1/CyclinB1, CDK2/CyclinA2, CDK2/CyclinE1, CDK4/CyclinD1, CDK6/CyclinD1, CDK7/CyclinH/MAT1, CDK9/CyclinT1 was provided in Table 1.
# [2] = molecular target: CDK6/CyclinD1 (Homo sapiens (Human), UniProt Q00534); test: CDK6/CyclinD1 enzyme activity test (LANCE Ultra TR-FRET); assay type: biochemical; details: 250 μM ATP, 25° C. 120 minutes, read-out: CDK6/Cyclin D1 IC50
# Experimental: CDK6/CyclinD1 Enzyme Reaction System
# as §1, §2, §3, §4, §5
# [3] = Pharmacokinetic evaluation in CD-1 (ICR) mice, oral; assay type: in vivo, mouse; details: male CD-1 (ICR) mice, oral 5 mg/kg, plasma
# Experimental: Experimental Scheme of Compounds 18, 19 and 20
# The healthy adult male CD-1 (ICR) mice used in this study were purchased from Pinghu Weitong Lihua Experimental Animal Technology Co., Ltd.
# 0.300 mL of the stock solution was measured and vortexed for 2 minutes to obtain a homogeneous suspension at a concentration of 1 mg/mL, and the administration vehicle was 1% HPMC in water.
# Two male CD-1 (ICR) mice were given 5 mg/kg of the compound to be tested by intragastric administration.
# The blood of two animals was collected at each time point by serial blood collection. 30 μL of whole blood was collected respectively at 0.25, 0.5, 1, 2, 4, 8, and 24 hours after administration. The whole blood was placed in an anticoagulant tube, centrifuged at 3200 g for 10 minutes at 4° C., plasma was prepared and stored at −60° C. or lower. The drug concentration in plasma was determined by LC/MS-MS.
# [4] = molecular target: CDK1/CyclinB1 (Homo sapiens (Human), UniProt P06493); test: CDK1/CyclinB1 enzyme activity test (ADP-Glo); assay type: biochemical; details: 25 μM ATP, 25° C. 120 minutes, read-out: CDK1/Cyclin B IC50
# Experimental: CDK1/CyclinB1 Enzyme Reaction System
# Enzymes, substrates, ATP, and inhibitors were diluted by kinase buffer in the kit. The compounds to be tested were diluted 5-fold with a multi-channel pipette to the eighth concentration, that is, from 50 μM to 0.65 nM, the concentration of DMSO was 5%, and a double-hole experiment was set up. 1 μL of each concentration gradient of inhibitors, 2 μL of CDK1/CyclinB1 enzyme (12.5 ng), 2 μL mixture of substrate and ATP (25 μM adenosine triphosphate, 0.2 μg/μL substrate) were added to the microplates, and the final concentration gradient of the compound was 10 μM to 0.13 nM. The reaction system was reacted at 25° C. for 120 minutes. After the reaction, 5 μL of ADP-Glo reagent was added to each well, the reaction was carried out at 25° C. for 40 minutes, after the reaction was completed, 10 μL of kinase detection reagent was added to each well, the reaction was carried out at 25° C. for 30 minutes, the multiple label analyzer was used to read the chemiluminescence with an integration time of 0.5 seconds.
# as §5
# Chain of CDK4/CyclinD1 (P11802 whole entry): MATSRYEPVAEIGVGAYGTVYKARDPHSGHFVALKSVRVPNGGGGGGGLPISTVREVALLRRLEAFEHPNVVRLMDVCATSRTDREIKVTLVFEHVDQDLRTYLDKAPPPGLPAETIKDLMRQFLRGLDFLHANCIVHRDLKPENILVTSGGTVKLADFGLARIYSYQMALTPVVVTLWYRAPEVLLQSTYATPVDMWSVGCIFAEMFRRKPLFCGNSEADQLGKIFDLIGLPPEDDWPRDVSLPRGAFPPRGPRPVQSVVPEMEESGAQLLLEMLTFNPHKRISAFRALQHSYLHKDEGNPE
# Chain of CDK4/CyclinD1 (P24385 whole entry partner): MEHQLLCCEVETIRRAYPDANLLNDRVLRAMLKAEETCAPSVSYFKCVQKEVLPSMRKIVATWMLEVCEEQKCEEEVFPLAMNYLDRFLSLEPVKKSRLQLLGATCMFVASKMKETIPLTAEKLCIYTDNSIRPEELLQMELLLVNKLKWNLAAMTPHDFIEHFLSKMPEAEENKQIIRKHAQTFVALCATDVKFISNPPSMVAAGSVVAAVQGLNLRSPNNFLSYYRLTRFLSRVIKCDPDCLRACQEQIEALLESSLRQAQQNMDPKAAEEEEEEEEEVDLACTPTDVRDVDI
# Chain of CDK6/CyclinD1 (Q00534 whole entry): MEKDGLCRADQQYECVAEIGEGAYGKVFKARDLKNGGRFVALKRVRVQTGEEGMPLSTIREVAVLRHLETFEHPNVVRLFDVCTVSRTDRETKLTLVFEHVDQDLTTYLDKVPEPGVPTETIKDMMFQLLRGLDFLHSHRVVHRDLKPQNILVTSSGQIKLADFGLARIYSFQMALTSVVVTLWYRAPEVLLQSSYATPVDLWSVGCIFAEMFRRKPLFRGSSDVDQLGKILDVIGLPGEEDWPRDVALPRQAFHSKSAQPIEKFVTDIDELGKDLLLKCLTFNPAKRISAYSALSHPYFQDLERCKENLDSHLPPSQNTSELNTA
# Chain of CDK6/CyclinD1 (P24385 whole entry partner): as the sequence (P24385 whole entry partner) above
# Chain of CDK1/CyclinB1 (P06493 whole entry): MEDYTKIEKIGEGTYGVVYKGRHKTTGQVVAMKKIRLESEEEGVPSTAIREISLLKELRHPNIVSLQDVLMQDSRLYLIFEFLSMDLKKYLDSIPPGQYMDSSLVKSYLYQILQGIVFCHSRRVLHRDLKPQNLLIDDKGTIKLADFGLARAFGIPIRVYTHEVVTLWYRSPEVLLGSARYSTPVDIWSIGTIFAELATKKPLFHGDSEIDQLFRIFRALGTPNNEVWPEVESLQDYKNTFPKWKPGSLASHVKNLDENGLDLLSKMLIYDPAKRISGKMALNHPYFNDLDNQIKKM
# Chain of CDK1/CyclinB1 (P14635 whole entry partner): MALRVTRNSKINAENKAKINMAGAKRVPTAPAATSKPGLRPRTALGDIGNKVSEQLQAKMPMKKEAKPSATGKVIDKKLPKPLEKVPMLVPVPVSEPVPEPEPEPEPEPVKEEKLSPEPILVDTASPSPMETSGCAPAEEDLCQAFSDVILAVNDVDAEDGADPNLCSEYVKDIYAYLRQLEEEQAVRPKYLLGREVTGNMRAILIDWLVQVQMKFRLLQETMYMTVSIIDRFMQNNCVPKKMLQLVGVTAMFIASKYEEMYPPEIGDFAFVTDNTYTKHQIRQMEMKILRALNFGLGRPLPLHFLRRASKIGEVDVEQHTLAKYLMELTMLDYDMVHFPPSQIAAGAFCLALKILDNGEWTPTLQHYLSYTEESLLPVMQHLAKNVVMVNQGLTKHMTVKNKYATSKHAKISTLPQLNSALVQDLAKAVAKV
Compound,IC50 [1],IC50 [2],Oral exposure AUC0-t [3],IC50 [4]
Cn1cc(Cl)c(Nc2nc(C(F)F)cc3cnc(NC4CCN(S(C)(=O)=O)CC4)nc23)n1 [Compound 20],0.82 nM,0.56 nM,2.746 µM·h,
"CS(=O)(=O)N1CCC(Nc2ncc3cc(C(F)F)nc(N[C@@H]4CCCC4(F)F)c3n2)CC1 (single isomer, unassigned) [Compound 22]",0.5 nM,1.36 nM,,8.86 nM
Cc1cn(C)nc1Nc1nc(C(F)F)cc2cnc(NC3CCN(S(C)(=O)=O)CC3)nc12 [Compound 19],4.26 nM,1.15 nM,3.143 µM·h,
